# How the values were obtained:
# [1] = tested on: HTB81 (human prostate carcinoma); test: CCK-8 antiproliferative assay, HTB81 cell line; assay type: cell-based
# From the text: (§1) In a preliminary study, we tested the cytotoxicity of γ-lactam 4b as lead compound against seven human cancer cell lines: HEK293 (human embryonic kidney), MCF7 (human breast adenocarcinoma), HTB81 (human prostate carcinoma), HeLa (human epithelioid cervix carcinoma), RKO (human colon epithelial carcinoma), SKOV3 (human ovarian carcinoma) and A549 (carcinomic human alveolar basal epithelial cell). The cell proliferation inhibitory activity of γ-lactam 4b is shown as IC50 values (Figure 2).
# A549 cells [2] = test: Flow cytometry apoptosis/necrosis assay (Annexin V FITC / propidium iodide); assay type: cell-based, human; details: A549, 5 µM; for Percentage of late-apoptotic and necrotic cells: FL-1 and FL-3 positive; for Percentage of early-apoptotic cells: FL-1 positive, FL-3 negative
# Method: In addition, flow cytometry assays were performed using compound 4b in A549 cells at 12, 24, and 48 h post-exposure. Early apoptotic cells were FL-1 positive and FL-3 negative, meaning that they had initialized the apoptotic process but were still alive at the time of the measurement. Percentages of these early-apoptotic cells after 12, 24, and 48 h. were, respectively, 31.17 ± 2.04%, 34.97 ± 3.62% and 40.13 ± 0.81%. On the other hand, late apoptotic and necrotic cells were both FL-1 and FL-3 positive, meaning that they activated the apoptotic machinery and were dead at the time of the measurement. Percentages of late-apoptotic and necrotic cells after 12, 24 and 48 h were, respectively, 33.03 ± 1.43%, 37.60 ± 3.37% and 36.90 ± 0.70% (Figure 4). Control live cells were all FL-1 and FL-3 negative, while around 95% of control necrotic cells were FL-3 positive, FL-1 negative (See ESI). […] In fact, among all the dead cells detected, which were FL-1 positive, almost all were simultaneously positive for the FL-3 channel too, while only a small percentage (2% or lower) of dead cells were exclusively FL-1 positive. Therefore, the majority of dead cells detected in this study were apoptotic cells. In addition, the total percentages of […], which comprised early and late apoptotic cells, were over 60%, and the percentage increased over time.
# Flow cytometry assays were conducted using a FACSCalibur system flow cytometer (Becton Dickinson Bioscience, Franklin Lakes, NJ, USA), to identify apoptotic cells and to differentiate them from necrotic cells. A549 cells were exposed to 5 µM of the cytotoxic compound 4b and cell apoptosis and necrosis were evaluated 12, 24, and 48 h after exposure. For that purpose, treated cells were washed with phosphate-buffered saline (PBS) (Sigma-Aldrich, Spain) and detached with trypsin/EDTA (0.25%) (Gibco, New York, NY, USA). Cells were centrifuged at 1100 rpm for 5 min, and then the resulting pellet was resuspended in cell growth media and transferred to specific flow cytometer tubes. Propidium iodide (Sigma-Aldrich, Spain) at 1:300 dilution was used in each sample to detect necrotic cells and eBioscience™ Annexin V Apoptosis Detection Kit FITC (Fisher Scientific, Spain) was used to detect apoptotic cells following the manufacturer’s instructions. The fluorescent signals corresponding to necrotic cells and apoptotic cells were measured at 650 nm (FL3) and 525 nm (FL1), respectively. […] Cells treated with 1 µM of camptothecin (Sigma-Aldrich, Spain) served as a positive control for apoptosis and were used to establish cytometer settings and channel compensations. The experiments were carried out in triplicate for each condition. For each sample, 10,000 events were collected.
# A549 cells [3] = test: Visualization of cell growth and morphology; assay type: cell-based, human
# Method: Next, cell morphology analysis and flow cytometry assays were performed, to elucidate the mechanism of the antiproliferative activity of γ-lactam substrates. Cell morphology was analyzed at different time points after the addition of compound 4b to visualize the cellular modifications as a result of the treatment.
# Qualitative analysis of A549 cell growth and morphology after exposure to 1 µM and 5 µM of the cytotoxic compound 4b was conducted using Cytation^TM 1 Cell Imaging Multi-Mode Reader (Biotek, Winooski, VT, USA). Cell images were acquired immediately after the addition of the compound and at the following time-points after exposure: 0.5, 1, 1.5, 2, 3, 4, 8, 12, 16, 24, and 48 h.
# [4] = tested on: A549 (carcinomic human alveolar basal epithelial cell); test: CCK-8 antiproliferative assay, A549 cell line; assay type: cell-based; details: Homo sapiens, A549, A549 cell line, CCK-8; read-out: IC50 A549
# Method: (§2) In vitro cytotoxicity of the γ-lactam derivatives was evaluated by testing their antiproliferative activities against several human cancer cell lines. Cell counting kit (CCK-8) assay was used for the evaluation of growth inhibition.
# (§3) All stock solutions of the investigated compounds were prepared by dissolving the powdered materials in appropriate amounts of DMSO. The final concentration of DMSO never exceeded 5% (v/v) in reactions. The stock solution was stored at 5 °C until it was used.
# (§4) All were supplemented with 10% of fetal bovine serum (FBS) (Sigma-Aldrich, Madrid, Spain) and with 1% of NORMOCIN solution (Thermo Fisher, Waltham, Massachusetts, MA, USA). […] For cytotoxicity experiments, A549 cells were seeded in 96-well plates at a density of 2.5–3 × 10^3 cells per well and incubated overnight to achieve 70% of confluence at the time of exposition to the cytotoxic compound.
# (§5) Both were supplemented with 10% of fetal bovine serum (FBS) (Sigma-Aldrich, Spain) and with 1% of NORMOCIN solution (Thermo Fisher, Waltham, Massachusetts, MA, USA). […] For cytotoxicity experiments, A549 cells were seeded in 96-well plates at a density of 2.5–3 × 10^3 cells per well and incubated overnight to achieve 70% of confluence at the time of exposition to the cytotoxic compound.
# [5] = tested on: RKO (human colon epithelial carcinoma); test: CCK-8 antiproliferative assay, RKO cell line; assay type: cell-based
# Method: as §2, §3, §4
# [6] = tested on: SKOV3 (human ovarian carcinoma); test: CCK-8 antiproliferative assay, SKOV3 cell line; details: Homo sapiens, SK-OV-3, read-out: IC50 SKOV3, SKOV3 cell line, CCK-8
# Method: as §2, §3, §4
# [7] = tested on: MRC5 non-malignant lung fibroblasts; test: CCK-8 assay on non-malignant cells for selective toxicity; assay type: cell-based; details: Homo sapiens; MRC5 non-malignant lung fibroblasts, CCK-8; read-out: IC50 MRC5
# Method: as §2, §3, §4, §5
# [8] = tested on: MCF7 (human breast adenocarcinoma); test: CCK-8 antiproliferative assay, MCF7 cell line; assay type: cell-based
# From the text: as §1
# [9] = tested on: HEK293 (human embryonic kidney); test: CCK-8 antiproliferative assay, HEK293 cell line; assay type: cell-based
# From the text: as §1
# [10] = tested on: HeLa (human epithelioid cervix carcinoma); test: CCK-8 antiproliferative assay, HeLa cell line; assay type: cell-based
# From the text: as §1
smiles,measurement,setting,value
Cc1ccc(NC2=CC(c3ccccc3)N(c3ccc(C)cc3)C2=O)cc1 (stereo not drawn) [4b],IC50,[1],27.9 µM
same,Percentage of dead cells exclusively FL-1 positive,A549 cells [2]; 12-48 h,≤ 2%
same,Total percentage of FL-3 positive cells (early and late apoptotic cells),"A549 cells [2]; 12-48 h, increased over time",over 60%
same,Percentage of late-apoptotic and necrotic cells,A549 cells [2]; 12 h post-exposure,33.03 ± 1.43%
same,Percentage of early-apoptotic cells,A549 cells [2]; 12 h post-exposure,31.17 ± 2.04%
same,Percentage of late-apoptotic and necrotic cells,A549 cells [2]; 24 h post-exposure,37.60 ± 3.37%
same,Percentage of early-apoptotic cells,A549 cells [2]; 24 h post-exposure,34.97 ± 3.62%
same,Percentage of late-apoptotic and necrotic cells,A549 cells [2]; 48 h post-exposure,36.90 ± 0.70%
same,Percentage of early-apoptotic cells,A549 cells [2]; 48 h post-exposure,40.13 ± 0.81%
same,Cell morphology and growth,"A549 cells [3]; 1 µM, 0-48 h","healthy, uniform morphology"
same,Cell morphology and growth,"A549 cells [3]; 5 µM, especially after 6 h of exposure",alterations of the cellular morphology
same,Cell morphology,"A549 cells [3]; higher concentrations (10 and 15 µM, 24 h)",high cytotoxicity
same,IC50,[4],2.34 ± 0.28 µM
same,IC50,[5],22.1 ± 2.98 µM
same,IC50,[6],9.62 ± 1.18 µM
same,IC50,[7],> 50 µM
same,"Growth inhibition activity against MCF7, in words",[8],no grown inhibition activity
same,IC50,"[8]; Homo sapiens, MCF7, Figure 2",> 50 µM
same,"Growth inhibition activity against HEK293, in words",[9],no grown inhibition activity
same,IC50,"[9]; Homo sapiens, HEK293, Figure 2",> 50 µM
same,IC50,[10],30.2 µM
